According to patent US9776979B2, “EBI2 modulators” (Sanford-Burnham Medical Research Institute, priority 2013, dated 2017):

Molecular target: EBI2 (Homo sapiens, UniProt P32249)
Assay: Cell-based luminescent assay (EBI2 modulation)
Settings: cell-based luminescence; 7a,25-OHC final assay concentration 80 nM; 60 minutes incubation; read-out: IC50
Description: Cell-Based Luminescent Assay
To assess EBI2 modulation, the compounds described herein were assayed in the following cell-based luminescent assay:
1) Plated 600 cells/well in 4 uL of assay media into columns 1-48 of a 1536-well assay plate, using a liquid dispenser.
2) Centrifuged plates at 1000 rpm for 1 minute and covered with lids.
3) Incubated overnight at 37° C., 100% relative humidity, 5% CO2.
1) Centrifuged compound plates containing compounds described herein at 500 rpm for 1 minute.
2) Added compounds into assay plate col 5-48 to final concentration 4-5 uM. Added matching amount of DMSO to positive and negative control wells in columns 1-4.
3) Dispensed 2 ul/well of assay media to columns 1-2 for the positive control wells.
4) Added 2 ul/well of 400 nM 7a,25-OHC (final assay concentration=80 nM) in assay media to columns 3-48 for the negative control and test compound wells.
5) Centrifuged plates at 1000 rpm for 1 minute and re-lid plates.
6) Incubated plates at 37° C., 100% relative humidity, 5% CO2 for 60 minutes.
7) Following 60 minute incubation, delivered 2.5 uL of Detection Reagent solution to each assay plate (Columns 1-48) using a liquid handler.
8) Centrifuged plates at 2000 rpm for 2 minutes and re-lid plates.
9) Incubated plates for 60 minutes at 25 degrees in the dark.
10) Read plates using the Viewlux, Envision or other suitable plate reader using a luminescence detection.
The experimental values were normalized by the difference between values from neutral and stimulator control wells in each plate. Then normalized data was corrected to remove systematic plate patterns due to artifacts such as dispensing tip issues etc.

Chain of EBI2 (P32249 whole entry): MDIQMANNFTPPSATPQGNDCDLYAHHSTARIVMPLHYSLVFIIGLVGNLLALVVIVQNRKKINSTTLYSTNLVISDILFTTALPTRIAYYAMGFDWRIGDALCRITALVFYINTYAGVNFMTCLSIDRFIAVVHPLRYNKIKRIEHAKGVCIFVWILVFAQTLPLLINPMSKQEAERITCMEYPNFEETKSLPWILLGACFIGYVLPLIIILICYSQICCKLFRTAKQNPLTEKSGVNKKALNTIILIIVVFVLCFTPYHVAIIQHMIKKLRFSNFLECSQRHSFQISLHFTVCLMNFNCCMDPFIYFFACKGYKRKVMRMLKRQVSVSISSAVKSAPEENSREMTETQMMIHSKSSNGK

Cc1ccc(C#CC(=O)N2CCN(C(=O)c3ccc(F)cc3)CC2)cc1 [Compound C38, 1-{4-[(4-fluorophenyl)carbonyl]piperazinyl}-3-(4-methylphenyl)prop-2-yn-1-one]
IC50: < 100 nM

O=C(/C=C/c1ccc(Br)cc1)N1CCN(Cc2ccc(Cl)c(Cl)c2)CC1 [Compound C39, (2E)-1-{4-[(3,4-dichlorophenyl)methyl]piperazinyl}-3-(4-bromophenyl)prop-2-en-1-one]
IC50: < 100 nM

O=C(/C=C/c1ccc(Cl)cc1F)N1CCN(C(c2ccccc2)c2ccccc2)CC1 [Compound C40]
IC50: < 100 nM

Cc1ccc(CN2CCN(C(=O)/C=C/c3ccc(Br)cc3)CC2)cc1 [Compound C41, (2E)-3-(4-bromophenyl)-1-{4-[(4-methylphenyl)methyl]piperazinyl}prop-2-en-1-one]
IC50: < 100 nM

O=C(/C=C/c1ccccc1)N1CCN(C(c2ccccc2)c2ccccc2)CC1 [Compound C42, (2E)-1-[4-(diphenylmethyl)piperazinyl]-3-phenylprop-2-en-1-one]
IC50: < 100 nM

O=C(/C=C/c1ccc(Br)cc1)N1CCN(C(=O)c2ccc(C(F)(F)F)cc2)CC1 [Compound C44, (2E)-3-(4-bromophenyl)-1-(4-{[4-(trifluoromethyl)phenyl]carbonyl}piperazinyl)prop-2-en-1-one]
IC50: < 100 nM

O=C(c1cc2ccc(Cl)cc2s1)N1CCN(C(c2ccccc2)c2ccccc2)CC1 [Compound C45, 4-(diphenylmethyl)piperazinyl 6-chlorobenzo[b]thiophen-2-yl ketone]
IC50: < 100 nM

Cc1ccc2[nH]c(C(=O)N3CCN(S(=O)(=O)/C=C/c4ccccc4)CC3)cc2c1 [Compound C48, 4-[((1E)-2-phenylvinyl)sulfonyl]piperazinyl 5-methylindol-2-yl ketone]
IC50: < 100 nM

CCCCN1CCN(C(=O)/C=C/c2ccc(Br)cc2)CC1 [Compound C49, (2E)-3-(4-bromophenyl)-1-(4-butylpiperazinyl)prop-2-en-1-one]
IC50: < 100 nM

CC(C)CN1CCN(C(=O)/C=C/c2ccc(Br)cc2)CC1 [Compound C52, (2E)-3-(4-bromophenyl)-1-[4-(methylpropyl)piperazinyl]prop-2-en-1-one]
IC50: < 100 nM

Cc1ccc(C#CC(=O)N2CCN(C(=O)c3ccc(C(F)(F)F)cc3)CC2)cc1 [Compound C53, 3-(4-methylphenyl)-1-(4-{[4-(trifluoromethyl)phenyl]carbonyl}piperazinyl)prop-2-yn-1-one]
IC50: < 100 nM

O=C(c1cc2cc(Cl)ccc2[nH]1)N1CCN(C(c2ccccc2)c2ccccc2)CC1 [Compound C56, 4-(diphenylmethyl)piperazinyl 5-chloroindol-2-yl ketone]
IC50: < 100 nM

Cc1ccc2[nH]c(C(=O)N3CCN(S(=O)(=O)CCc4ccccc4)CC3)cc2c1 [Compound C57, 5-methylindol-2-yl 4-[(2-phenylethyl)sulfonyl]piperazinyl ketone]
IC50: < 100 nM

Cc1ccc(C#CC(=O)N2CCN(C(c3ccccc3)c3ccccc3)CC2)cc1 [Compound C58, 1-[4-(diphenylmethyl)piperazinyl]-3-(4-methylphenyl)prop-2-yn-1-one]
IC50: < 100 nM

COc1ccc(C(=O)N2CCN(C(=O)C#Cc3cccc(Cl)c3)CC2)cc1 [Compound C59, 3-(3-chlorophenyl)-1-{4-[(4-methoxyphenyl)carbonyl]piperazinyl}prop-2-yn-1-one]
IC50: < 100 nM

O=C(C#Cc1ccc(C(F)(F)F)cc1)N1CCN(C(=O)c2ccc(Cl)cc2)CC1 [Compound C60, 1-{4-[(4-chlorophenyl)carbonyl]piperazinyl}-3-[4-(trifluoromethyl)phenyl]prop-2-yn-1-one]
IC50: < 100 nM

O=C(C#Cc1ccc(Br)cc1)N1CCN(C(=O)c2ccc(Br)cc2)CC1 [Compound C61, 3-(4-bromophenyl)-1-{4-[(4-bromophenyl)carbonyl]piperazinyl}prop-2-yn-1-one]
IC50: < 100 nM

COC(=O)c1ccc(C(=O)N2CCN(C(=O)c3cc4cc(Cl)ccc4[nH]3)CC2)cc1 [Compound C62, methyl 4-({4-[(5-chloroindol-2-yl)carbonyl]piperazinyl}carbonyl)benzoate]
IC50: < 100 nM

O=C(/C=C/c1ccc([N+](=O)[O-])cc1)N1CCN(C(c2ccccc2)c2ccccc2)CC1 [Compound C63, (2E)-1-[4-(diphenylmethyl)piperazinyl]-3-(4-nitrophenyl)prop-2-en-1-one]
IC50: < 100 nM

O=C(C#Cc1ccccc1)N1CCN(C(=O)c2ccc(Br)cc2)CC1 [Compound C65, 1-{4-[(4-bromophenyl)carbonyl]piperazinyl}-3-phenylprop-2-yn-1-one]
IC50: < 100 nM

O=C(C#Cc1ccc(C(F)(F)F)cc1)N1CCN(C(c2ccccc2)c2ccccc2)CC1 [Compound C66, 1-[4-(diphenylmethyl)piperazinyl]-3-[4-(trifluoromethyl)phenyl]prop-2-yn-1-one]
IC50: < 100 nM

O=C(/C=C/c1ccc(F)cc1)N1CCN(C(c2ccccc2)c2ccccc2)CC1 [Compound C68, (2E)-1-[4-(diphenylmethyl)piperazinyl]-3-(4-fluorophenyl)prop-2-en-1-one]
IC50: < 100 nM

O=C(C#Cc1ccc(F)cc1)N1CCN(C(=O)c2ccc(Cl)cc2)CC1 [Compound C69, 1-{4-[(4-chlorophenyl)carbonyl]piperazinyl}-3-(4-fluorophenyl)prop-2-yn-1-one]
IC50: < 100 nM

O=C(C#Cc1ccc(Br)cc1)N1CCN(C(=O)c2ccc(F)cc2)CC1 [Compound C70, 3-(4-bromophenyl)-1-{4-[(4-fluorophenyl)carbonyl]piperazinyl}prop-2-yn-1-one]
IC50: < 100 nM

O=C(c1cc2ccccc2[nH]1)N1CCN(C(c2ccccc2)c2ccccc2)CC1 [Compound C71, 4-(diphenylmethyl)piperazinyl indol-2-yl ketone]
IC50: < 100 nM

COc1cc(CN2CCN(C(=O)/C=C/c3ccc(Br)cc3)CC2)cc(OC)c1 [Compound C72, (2E)-1-{4-[(3,5-dimethoxyphenyl)methyl]piperazinyl}-3-(4-bromophenyl)prop-2-en-1-one]
IC50: < 100 nM

O=C(C#Cc1ccc(Cl)cc1)N1CCN(C(=O)c2ccc(C(F)(F)F)cc2)CC1 [Compound C73, 3-(4-chlorophenyl)-1-(4-{[4-(trifluoromethyl)phenyl]carbonyl}piperazinyl)prop-2-yn-1-one]
IC50: < 100 nM

COc1ccc(C(=O)N2CCN(C(=O)C#Cc3ccc(F)cc3)CC2)cc1 [Compound C75, 3-(4-fluorophenyl)-1-{4-[(4-methoxyphenyl)carbonyl]piperazinyl}prop-2-yn-1-one]
IC50: < 100 nM

O=C(C#Cc1ccc(C(F)(F)F)cc1)N1CCN(C(=O)c2ccc(F)cc2)CC1 [Compound C76, 1-{4-[(4-fluorophenyl)carbonyl]piperazinyl}-3-[4-(trifluoromethyl)phenyl]prop-2-yn-1-one]
IC50: < 100 nM

CCC(C)C(=O)N1CCN(C(=O)/C=C/c2ccc(Br)cc2)CC1 (stereo not drawn) [Compound C78, (2E)-3-(4-bromophenyl)-1-[4-(2-methylbutanoyl)piperazinyl]prop-2-en-1-one]
IC50: < 100 nM

O=C(c1cc2cc(C(F)(F)F)ccc2[nH]1)N1CCN(C(c2ccccc2)c2ccccc2)CC1 [Compound C79, 4-(diphenylmethyl)piperazinyl 5-(trifluoromethyl)indol-2-yl ketone]
IC50: < 100 nM

COC(=O)c1ccc(C(=O)N2CCN(C(=O)c3cc4cc(Br)ccc4[nH]3)CC2)cc1 [Compound C81, methyl 4-({4-[(5-bromoindol-2-yl)carbonyl]piperazinyl}carbonyl)benzoate]
IC50: < 100 nM

O=C(/C=C/c1ccc(Br)cc1)N1CCN(C(=O)C2CCCC2)CC1 [Compound C82, (2E)-3-(4-bromophenyl)-1-[4-(cyclopentylcarbonyl)piperazinyl]prop-2-en-1-one]
IC50: < 100 nM

O=C(C#Cc1ccc(C(F)(F)F)cc1)N1CCN(C(=O)c2ccc(C(F)(F)F)cc2)CC1 [Compound C84, 3-[4-(trifluoromethyl)phenyl]-1-(4-{[4-(trifluoromethyl)phenyl]carbonyl}piperazinyl)prop-2-yn-1-one]
IC50: < 100 nM

O=C(c1cnc2cc(F)ccc2c1)N1CCN(C(c2ccccc2)c2ccccc2)CC1 [Compound C86, 4-(diphenylmethyl)piperazinyl 7-fluoro(3-quinolyl) ketone]
IC50: < 100 nM

O=C(c1cc2ccccc2o1)N1CCN(C(c2ccccc2)c2ccccc2)CC1 [Compound C87, benzo[d]furan-2-yl 4-(diphenylmethyl)piperazinyl ketone]
IC50: < 100 nM

O=C(c1cc2cc(Cl)ccc2[nH]1)N1CCN(S(=O)(=O)CCc2ccccc2)CC1 [Compound C88, 5-chloroindol-2-yl 4-[(2-phenylethyl)sulfonyl]piperazinyl ketone]
IC50: < 100 nM

O=C(c1ccc(Cl)cc1)N1CCN(C(=O)c2cc3cc(Cl)ccc3[nH]2)CC1 [Compound C89, 5-chloroindol-2-yl 4-[(4-chlorophenyl)carbonyl]piperazinyl ketone]
IC50: < 100 nM

O=C(C#Cc1cccc(Cl)c1Cl)N1CCN(C(=O)c2ccc(F)cc2C(F)(F)F)CC1 [Compound C90, 3-(2,3-dichlorophenyl)-1-(4-{[4-fluoro-2-(trifluoromethyl)phenyl]carbonyl}piperazinyl)prop-2-yn-1-one]
IC50: < 100 nM
